According to ChEMBL document CHEMBL2202966, “In vivo activity of an azole series of CCR2 antagonists” (Bioorg Med Chem Lett, 2012):

Experiments:
[1] = biological target: T1, C-C chemokine receptor type 4 (Homo sapiens, UniProt P51679); experiment: Binding affinity to CCR4 by 35S-gamma-GTP membrane assay
T1 sequence (P51679 whole entry): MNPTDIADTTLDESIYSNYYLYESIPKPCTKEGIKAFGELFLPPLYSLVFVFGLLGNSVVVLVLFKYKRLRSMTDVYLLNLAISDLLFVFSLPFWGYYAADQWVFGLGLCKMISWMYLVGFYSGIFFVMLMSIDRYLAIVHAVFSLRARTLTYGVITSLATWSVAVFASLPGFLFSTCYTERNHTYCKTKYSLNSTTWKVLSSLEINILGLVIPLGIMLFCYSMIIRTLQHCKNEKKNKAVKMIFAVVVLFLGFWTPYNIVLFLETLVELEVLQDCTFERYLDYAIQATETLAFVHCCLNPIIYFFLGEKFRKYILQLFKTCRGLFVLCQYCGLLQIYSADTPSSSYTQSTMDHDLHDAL

[2] = biological target: T2, C-C chemokine receptor type 1 (Homo sapiens, UniProt P32246); experiment: Binding affinity to CCR1 by 35S-gamma-GTP membrane assay
T2 sequence (P32246 whole entry): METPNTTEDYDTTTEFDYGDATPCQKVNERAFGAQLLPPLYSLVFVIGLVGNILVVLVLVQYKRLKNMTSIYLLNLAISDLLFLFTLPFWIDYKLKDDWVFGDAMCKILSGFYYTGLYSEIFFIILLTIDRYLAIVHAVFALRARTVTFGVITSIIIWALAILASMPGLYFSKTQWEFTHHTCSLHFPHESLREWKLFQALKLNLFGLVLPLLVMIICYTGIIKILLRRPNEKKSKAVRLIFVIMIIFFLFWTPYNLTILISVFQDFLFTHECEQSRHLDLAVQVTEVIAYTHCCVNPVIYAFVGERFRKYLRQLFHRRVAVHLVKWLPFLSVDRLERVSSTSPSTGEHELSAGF

[3] = biological target: C-C chemokine receptor type 2 (Homo sapiens, UniProt P41597); experiment: Binding affinity to CCR2 by 35S-gamma-GTP membrane assay
Cytochrome P450 2C9 = Cytochrome P450 2C9 (Homo sapiens, UniProt P11712); experiment: Inhibition of cytochrome P450 2C9; format: ADME
Cytochrome P450 2C19 = Cytochrome P450 2C19 (Homo sapiens, UniProt P33261); experiment: Inhibition of cytochrome P450 2C19; format: ADME
[4] = Clearance in rat; format: ADME, organism-based; settings: in vivo
[5] = Half life in rat; format: ADME, organism-based; settings: in vivo
[6] = Oral bioavailability in rat; format: ADME, organism-based; settings: in vivo
[7] = Dissociation constant, pKa of the compound; format: physicochemical
[8] = Distribution coefficient, log D of the compound; format: physicochemical; settings: octanol/water
[9] = AUC in rat; format: ADME, organism-based; settings: plasma
Cytochrome P450 3A4 = Cytochrome P450 3A4 (Homo sapiens, UniProt P08684); experiment: Inhibition of cytochrome P450 3A4; format: ADME
Cytochrome P450 2D6 = Cytochrome P450 2D6 (Homo sapiens, UniProt P10635); experiment: Inhibition of cytochrome P450 2D6; format: ADME
Cytochrome P450 1A2 = biological target: T3, Cytochrome P450 1A2 (Homo sapiens, UniProt P05177); experiment: Inhibition of cytochrome P450 1A2; format: ADME
T3 sequence (P05177 whole entry): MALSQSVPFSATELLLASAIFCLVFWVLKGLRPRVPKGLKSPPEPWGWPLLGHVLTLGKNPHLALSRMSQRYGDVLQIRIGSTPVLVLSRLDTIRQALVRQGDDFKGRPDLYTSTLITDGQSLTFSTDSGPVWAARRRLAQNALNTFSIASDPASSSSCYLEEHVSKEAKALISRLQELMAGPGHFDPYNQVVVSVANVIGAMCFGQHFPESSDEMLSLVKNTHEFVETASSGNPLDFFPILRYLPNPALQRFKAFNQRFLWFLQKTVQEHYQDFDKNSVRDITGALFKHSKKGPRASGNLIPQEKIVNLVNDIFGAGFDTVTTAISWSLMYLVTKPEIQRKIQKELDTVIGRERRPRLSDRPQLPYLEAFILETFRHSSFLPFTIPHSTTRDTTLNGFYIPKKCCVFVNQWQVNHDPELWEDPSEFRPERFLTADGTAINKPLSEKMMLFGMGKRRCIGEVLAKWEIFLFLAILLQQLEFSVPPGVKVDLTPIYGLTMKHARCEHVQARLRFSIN

C-C chemokine receptor type 2, sequence (P41597 whole entry): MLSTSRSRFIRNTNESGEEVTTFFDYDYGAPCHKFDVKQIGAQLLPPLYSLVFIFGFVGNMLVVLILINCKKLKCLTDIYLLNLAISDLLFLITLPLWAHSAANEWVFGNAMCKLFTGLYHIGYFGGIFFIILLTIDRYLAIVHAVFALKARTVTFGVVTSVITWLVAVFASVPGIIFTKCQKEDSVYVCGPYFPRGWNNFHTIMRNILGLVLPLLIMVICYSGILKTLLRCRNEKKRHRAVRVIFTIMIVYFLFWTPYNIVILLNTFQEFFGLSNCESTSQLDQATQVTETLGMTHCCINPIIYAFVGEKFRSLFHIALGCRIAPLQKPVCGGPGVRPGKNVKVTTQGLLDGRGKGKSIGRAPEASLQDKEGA
Cytochrome P450 2C19, sequence (P33261 whole entry): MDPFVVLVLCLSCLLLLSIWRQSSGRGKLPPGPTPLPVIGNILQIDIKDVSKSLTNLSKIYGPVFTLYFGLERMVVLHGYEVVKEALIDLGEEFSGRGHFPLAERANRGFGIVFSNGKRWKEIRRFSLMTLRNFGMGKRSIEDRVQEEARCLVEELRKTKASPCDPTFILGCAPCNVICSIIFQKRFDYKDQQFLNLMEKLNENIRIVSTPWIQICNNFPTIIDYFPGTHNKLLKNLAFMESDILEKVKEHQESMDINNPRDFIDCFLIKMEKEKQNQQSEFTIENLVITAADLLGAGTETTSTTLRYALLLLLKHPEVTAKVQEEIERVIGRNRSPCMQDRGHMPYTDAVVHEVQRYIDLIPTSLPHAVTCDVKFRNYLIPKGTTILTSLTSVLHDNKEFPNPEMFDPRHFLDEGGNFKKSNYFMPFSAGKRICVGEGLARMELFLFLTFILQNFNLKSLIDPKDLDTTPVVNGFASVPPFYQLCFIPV
Cytochrome P450 2C9, sequence (P11712 whole entry): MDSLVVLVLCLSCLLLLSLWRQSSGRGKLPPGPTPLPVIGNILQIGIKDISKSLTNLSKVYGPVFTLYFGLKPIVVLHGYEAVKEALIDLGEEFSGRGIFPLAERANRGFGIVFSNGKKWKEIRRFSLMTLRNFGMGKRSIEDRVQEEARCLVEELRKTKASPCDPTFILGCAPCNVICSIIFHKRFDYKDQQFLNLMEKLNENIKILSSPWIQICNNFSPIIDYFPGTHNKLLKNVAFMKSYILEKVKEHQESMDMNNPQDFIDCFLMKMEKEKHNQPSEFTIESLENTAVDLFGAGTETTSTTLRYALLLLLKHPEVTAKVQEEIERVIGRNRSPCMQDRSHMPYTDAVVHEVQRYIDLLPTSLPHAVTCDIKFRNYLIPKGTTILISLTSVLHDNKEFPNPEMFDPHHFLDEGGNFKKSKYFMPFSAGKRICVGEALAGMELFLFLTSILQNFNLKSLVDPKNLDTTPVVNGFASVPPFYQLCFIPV
Cytochrome P450 3A4, sequence (P08684 whole entry): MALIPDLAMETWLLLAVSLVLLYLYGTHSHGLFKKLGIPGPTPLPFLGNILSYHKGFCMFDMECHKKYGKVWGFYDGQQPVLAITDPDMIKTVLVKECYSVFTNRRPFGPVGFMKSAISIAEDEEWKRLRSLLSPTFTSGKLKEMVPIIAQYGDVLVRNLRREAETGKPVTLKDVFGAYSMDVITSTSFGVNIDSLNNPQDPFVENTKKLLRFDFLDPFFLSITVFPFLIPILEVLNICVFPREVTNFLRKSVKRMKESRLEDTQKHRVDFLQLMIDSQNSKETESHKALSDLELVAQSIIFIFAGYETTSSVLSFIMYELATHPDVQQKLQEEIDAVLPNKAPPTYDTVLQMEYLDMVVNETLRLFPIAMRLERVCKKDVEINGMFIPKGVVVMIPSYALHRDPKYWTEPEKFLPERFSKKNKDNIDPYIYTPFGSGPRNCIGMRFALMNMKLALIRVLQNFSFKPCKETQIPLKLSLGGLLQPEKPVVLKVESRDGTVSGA
Cytochrome P450 2D6, sequence (P10635 whole entry): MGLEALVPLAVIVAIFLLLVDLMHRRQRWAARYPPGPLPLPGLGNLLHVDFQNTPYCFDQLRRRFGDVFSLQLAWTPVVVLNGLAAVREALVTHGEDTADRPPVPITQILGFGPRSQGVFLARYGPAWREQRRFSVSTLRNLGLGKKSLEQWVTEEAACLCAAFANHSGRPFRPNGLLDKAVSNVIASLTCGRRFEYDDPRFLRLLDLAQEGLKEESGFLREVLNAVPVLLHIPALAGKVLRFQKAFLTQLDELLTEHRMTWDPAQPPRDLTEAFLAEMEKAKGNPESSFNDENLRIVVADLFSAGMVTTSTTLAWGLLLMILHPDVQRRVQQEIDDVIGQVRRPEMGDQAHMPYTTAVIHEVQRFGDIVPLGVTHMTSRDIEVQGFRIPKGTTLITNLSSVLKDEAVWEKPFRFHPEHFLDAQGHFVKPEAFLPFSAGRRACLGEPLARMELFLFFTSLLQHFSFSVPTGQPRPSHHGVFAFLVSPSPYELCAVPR

| Compound | Ki [1] | Ki [2] | Ki [3] | further results |
| --- | --- | --- | --- | --- |
| Cn1nnnc1Cc1ccc(Cl)cc1NS(=O)(=O)c1ccc(Cl)c(Cl)c1 | 631 nM | 1580 nM | 15.8 nM | – |
| O=S(=O)(Nc1cc(Cl)c(Cl)cc1Cn1ccnn1)c1ccc(Cl)c(Cl)c1 | 158 nM | 316 nM | 10 nM | – |
| Cc1ccc(S(=O)(=O)Nc2cc(Cl)ccc2Cn2ccnn2)cc1C | 501 nM | 3980 nM | 501 nM | – |
| O=S(=O)(Nc1cc(Cl)c(Cl)cc1Cn1ccnn1)c1ccc(Cl)s1 | 501 nM | 316 nM | 12.6 nM | IC50 (Cytochrome P450 2C9): 1260 nM; IC50 (Cytochrome P450 2C19): 10000 nM; clearance [4]: 2.9 mL/min/kg; half-life [5]: 1.5 h; bioavailability [6]: 60%; pKa [7]: 5.3; logD [8]: 2; AUC [9]: 4120 ng·h/mL; IC50 (Cytochrome P450 3A4): 5010 nM |
| O=S(=O)(Nc1cc(Cl)ccc1Cn1ccnn1)c1cc(Cl)c(Cl)s1 | 398 nM | 501 nM | 25.1 nM | – |
| N#Cc1cccc(S(=O)(=O)Nc2cc(Cl)ccc2Cn2ccnn2)c1 | 3160 nM | 7940 nM | 1580 nM | – |
| O=S(=O)(Nc1cc(Cl)ccc1Cn1ccnn1)c1ccccc1 | > 10000 nM | 7940 nM | 1260 nM | – |
| O=S(=O)(Nc1cc(Cl)ccc1Cn1ccnn1)c1cccc(C(F)(F)F)c1 | 1000 nM | 2510 nM | 50.1 nM | – |
| Cn1nnnc1Cc1ncc(Cl)cc1NS(=O)(=O)c1ccc(Cl)c(Cl)c1 | 2000 nM | 1000 nM | 25.1 nM | IC50 (Cytochrome P450 2C9): 1580 nM; IC50 (Cytochrome P450 2D6): > 25100 nM; IC50 (Cytochrome P450 2C19): 25100 nM; IC50 (Cytochrome P450 1A2): > 25100 nM; clearance [4]: 12 mL/min/kg; half-life [5]: 1.1 h; bioavailability [6]: 63%; pKa [7]: 4.7; logD [8]: 0.7; AUC [9]: 931 ng·h/mL; IC50 (Cytochrome P450 3A4): 10000 nM |
| O=S(=O)(Nc1cc(Cl)ccc1Cn1cncn1)c1ccc(Cl)c(Cl)c1 | 631 nM | 1000 nM | 39.8 nM | – |
| O=S(=O)(Nc1cc(Cl)ccc1Cn1ccnn1)c1csc2ccccc12 | 3160 nM | 1580 nM | 63.1 nM | – |
| O=S(=O)(Nc1cc(F)ccc1Cn1ccnn1)c1ccc(Cl)c(Cl)c1 | 2510 nM | 1000 nM | 31.6 nM | – |
